# What was measured:
# SRC kinase = target: T1, SRC kinase (Homo sapiens, UniProt P12931); assay: Assay for inhibition of SRC kinase activity; type: biochemical; conditions: fluorescence polarization, read-out: percentage inhibition at 20 μM
# T1 construct: purchased Upstate Biotechnology 14-117
# Procedure: 2) Assay for Inhibition of SRC Kinase Activity
# The inhibition is determined by fluorescence polarization, the […] kinase phosphorylates a peptide detected by adding an anti-phosphopeptide antibody coupled to a fluorescent label.
# The assay is carried out in a final volume of 50 μl; all the reagents are prepared in a buffer: • 25 mM HEPES/NaOH pH 7.6 • 5 mM MgCl2 • 2 mM MnCl2 • 50 μM Na2VO4 5 μl of the 10-times concentrated inhibitor are added to 25 μl of enzyme (12 U/ml final concentration), (Upstate Biotechnology ref 14-117). After incubation for 5 minutes at ambient temperature, 10 μl of PolyGluTyr 4/1 (150 ng/ml final concentration) and 10 μl of ATP (5 μM final concentration) are added. The detection is carried out after incubation for 20 minutes at ambient temperature. • Results obtained expressed as percentage inhibition at 20 μM • Example 8 98% • Example 15 99% • Example 20 99% • Example 24 99% • Example 27 95% • Example 30 99% • Example 32 100% • Example 38 95% 3) Assay for Inhibition of CDK2 Activity
# CaCiv1 = CaCiv1 (Candida albicans, UniProt A0A1D8PH53); assay: Assay for inhibition of CIV-CDK (CIV1) activity; type: biochemical; conditions: CaCiv1 with Cdk2 substrate, [33P]ATP, 30 min ambient temperature; read-out: IC50 as micromolar
# Excerpt: 1) Assay for Inhibition of CIV-CDK (CIV1) Activity
# a) Preparation of the Reagents
# ZAP kinase = target: T2, ZAP kinase (Homo sapiens, UniProt P43403); assay: Assay for inhibition of ZAP kinase activity; type: biochemical; conditions: fluorescence polarization, read-out: percentage inhibition at 20 μM
# T2 construct: purchased Panvera P2782
# T2 sequence (P43403 1-619): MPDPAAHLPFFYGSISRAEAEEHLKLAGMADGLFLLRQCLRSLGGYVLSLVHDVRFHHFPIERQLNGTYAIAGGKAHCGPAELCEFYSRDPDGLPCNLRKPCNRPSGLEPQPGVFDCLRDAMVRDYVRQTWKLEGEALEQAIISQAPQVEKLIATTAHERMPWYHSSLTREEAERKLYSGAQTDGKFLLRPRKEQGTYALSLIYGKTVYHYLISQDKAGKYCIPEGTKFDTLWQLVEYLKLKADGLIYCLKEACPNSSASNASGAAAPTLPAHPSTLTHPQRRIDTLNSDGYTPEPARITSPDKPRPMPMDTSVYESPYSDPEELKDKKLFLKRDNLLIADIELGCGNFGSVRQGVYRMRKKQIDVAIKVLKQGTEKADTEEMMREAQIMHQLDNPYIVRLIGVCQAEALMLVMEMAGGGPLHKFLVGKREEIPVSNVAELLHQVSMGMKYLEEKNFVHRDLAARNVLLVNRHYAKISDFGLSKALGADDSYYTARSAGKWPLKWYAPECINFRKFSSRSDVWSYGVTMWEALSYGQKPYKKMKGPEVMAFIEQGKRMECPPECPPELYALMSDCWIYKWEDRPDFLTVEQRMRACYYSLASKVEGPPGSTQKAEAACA
# Procedure: The inhibition of the kinase activity is determined by fluorescence polarization, the ZAP kinase phosphorylates a peptide detected by adding an anti-phosphopeptide antibody coupled to a fluorescent label.
# The assay is carried out in a final volume of 50 μl; all the reagents are prepared in a buffer: • 20 mM Tris/HCl pH 7.7 • 7 mM MnCl2 • 50 μM Na2VO4 5 μl of the 10-times concentrated inhibitor are added to 25 μl of enzyme (0.7 μg/ml final concentration) (Panvera ref P2782). After incubation for 5 minutes at ambient temperature, 10 μl of PolyGT (300 ng/ml final concentration) and 10 μl of ATP (0.25 μM final concentration) are added. The detection is carried out after incubation for 15 minutes at ambient temperature. • Results obtained expressed as percentage inhibition at 20 μM • Example 8 98% • Example 20 95% • Example 24 96% 7) Assay for Inhibition of Casein Kinase II Activity
# Candida albicans = assay: Minimum inhibitory concentration in liquid medium, micro method (NCCLS M27-A); type: cell-based; conditions: read-out: MIC Candida albicans
# Procedure: (§1) The assay is carried out in a final volume of 40 μl; all the reagents are prepared in a buffer: • 50 mM HEPES pH 7.5 • 0.03% triton X100 • 10 mM MgCl2 • 5% Glycerol • 1 mM DTT 10 μl of the 10-times concentrated inhibitor are added to 5 μl of enzyme (75 ng final concentration), and 5 μl of peptide (1 μM final concentration), then 2.5 μl of incubation buffer containing 40 μM ATP and 2.5 μl of radiolabeled ATP, [^33P]ATP (500 nCi), are added. After incubation for 15 minutes at ambient temperature, 10 μl of incubation buffer containing 192 nM of substrate. […] Reference method for broth dilution antifungal susceptibility testing of yeasts. Approved Standard M27-A. NCCLS, Villanova, Pa.); the minimum concentration with which a visible decrease is observed in the cloudiness of the cell growth (at least 80% compared to a control without product) is the Minimum Inhibitory Concentration (MIC) of the antifungal agent with respect to the strain tested.
# (§2) RPMI 1640 medium (liquid) without L-glutamine is supplemented with L-glutamine (0.3 g/l or 10.5 ml of a solution at 200 mM) and buffered with 34.54 g/l (0.165 M) of morpholinepropanesulfonic acid (MOPS). The medium is sterilized by filtration. 100 μl of RPMI medium are distributed into each well of a 96-well plate. The appropriate volume. of the antifungal solution is distributed in the first column of the microplate and supplemented with 200 μl of medium. Doubling dilutions are made so as to establish a range of 11 concentrations in each line of the microplate. The 12th well of each row will serve as a growth control. The cell suspension is prepared from a culture (liquid or agar) or from a frozen vial, and is diluted in RPMI medium so as to obtain a cell suspension at 5×10^3−2×10^4 cells/ml. 100 μl of the cell suspension are distributed in the microplate. For all species of Candida, the MIC is read after 24-48 h, and for Cryptococcus and Aspergillus after 48-72 h, of incubation at 37° C. in a normal atmosphere. The MIC is read by visual reading, determining the well which contains the lowest dose of antifungal agent which causes at least 80% inhibition of the growth of the fungus.
# Candida glabrata = assay: as above; type: cell-based; conditions: Nakaseomyces glabratus, read-out: MIC Candida glabrata
# Procedure: as §1, §2
# Aspergillus fumigatus = assay: as above; type: cell-based; conditions: at least 80% inhibition of growth, read after 48-72 h at 37° C., RPMI 1640
# Procedure: as §1, §2
# FAK = FAK (Homo sapiens, UniProt Q05397); assay: Assay for inhibition of FAK activity (autophosphorylation); type: biochemical; conditions: fluorescence polarization, ATP 1 μM; read-out: IC50s expressed as micromolar
# Procedure: The inhibition of the kinase activity is determined by fluorescence polarization, the autophosphorylation of FAK is detected by adding an anti-phosphoprotein antibody coupled to a fluorescent label.
# The assay is carried out in a final volume of 30 μl; all the reagents are prepared in a buffer: • 50 mM HEPES pH 7.5 • 0.03% triton X100 • 10 mM MgCl2 • 5% Glycerol • 1 mM DTT 10 μl of the 10-times concentrated inhibitor are added to 5 μl of enzyme (100 ng final concentration), and 5 μl of incubation buffer and 10 μl of ATP (1 μM final concentration) are added.
# EGF tyr Kinase = target: T3, EGF tyr Kinase (Homo sapiens, UniProt P00533); assay: Assay for inhibition of EGF tyr kinase activity; type: biochemical; conditions: [33P]ATP, read-out: percentage inhibition at 20 μM
# T3 construct: purchased Tebu SE-124
# Procedure: The inhibition of the kinase activity is determined by measuring the phosphorylation of its substrate peptide.
# The assay is carried out in a final volume of 100 μl.
# The incubation buffer is as follows:
# • 5 mM Hepes/Tris pH 7.4 • 2% Glycerol • 0.2% triton X100 10 μl of the 10-times concentrated inhibitor are added to 20 μl of incubation buffer containing 1 U/μl final concentration of the enzyme (Tebu, SE-124); 30 μl of incubation buffer containing 0.43 mg/ml final concentration of peptide substrate are then added along with 20 μl of incubation buffer containing 0.4 μM of enzyme and, finally, 20 μl of 6 mM tris/HCl pH 7.4, 15 mM MgCl2 buffer containing 10 μM ATP and radiolabeled ATP, [^33P]ATP (0.25 μCi), are added. The reaction is stopped after incubation for 60 minutes at 30° C. • Results obtained expressed as percentage inhibition at 20 μM • Example 20 100% 10) Assay for Inhibition of AKT Activity
# CaCiv1, sequence (A0A1D8PH53 entry or part of it): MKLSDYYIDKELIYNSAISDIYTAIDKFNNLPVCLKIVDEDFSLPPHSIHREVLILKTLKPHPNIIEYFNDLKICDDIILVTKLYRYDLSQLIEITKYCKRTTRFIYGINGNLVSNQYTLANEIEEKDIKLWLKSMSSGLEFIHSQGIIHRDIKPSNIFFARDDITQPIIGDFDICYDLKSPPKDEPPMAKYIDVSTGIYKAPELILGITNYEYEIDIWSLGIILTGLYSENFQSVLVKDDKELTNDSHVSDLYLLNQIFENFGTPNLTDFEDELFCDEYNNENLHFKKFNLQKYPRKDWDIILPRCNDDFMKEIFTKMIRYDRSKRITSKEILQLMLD
# T1 sequence (P12931 whole entry): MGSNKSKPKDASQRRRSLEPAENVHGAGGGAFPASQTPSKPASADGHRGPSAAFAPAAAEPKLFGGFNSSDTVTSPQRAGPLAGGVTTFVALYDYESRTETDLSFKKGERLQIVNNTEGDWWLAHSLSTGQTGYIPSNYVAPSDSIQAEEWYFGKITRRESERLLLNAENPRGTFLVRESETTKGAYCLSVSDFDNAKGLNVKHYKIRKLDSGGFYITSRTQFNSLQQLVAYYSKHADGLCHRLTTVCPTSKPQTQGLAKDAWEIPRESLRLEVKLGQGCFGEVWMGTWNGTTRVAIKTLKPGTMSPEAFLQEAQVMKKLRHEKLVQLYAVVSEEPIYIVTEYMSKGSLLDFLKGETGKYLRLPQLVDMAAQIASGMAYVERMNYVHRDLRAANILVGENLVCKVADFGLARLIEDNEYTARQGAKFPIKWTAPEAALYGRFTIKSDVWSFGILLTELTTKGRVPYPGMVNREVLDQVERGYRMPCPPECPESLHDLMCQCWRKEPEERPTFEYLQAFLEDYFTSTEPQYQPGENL
# FAK, sequence (Q05397 whole entry, species assumed): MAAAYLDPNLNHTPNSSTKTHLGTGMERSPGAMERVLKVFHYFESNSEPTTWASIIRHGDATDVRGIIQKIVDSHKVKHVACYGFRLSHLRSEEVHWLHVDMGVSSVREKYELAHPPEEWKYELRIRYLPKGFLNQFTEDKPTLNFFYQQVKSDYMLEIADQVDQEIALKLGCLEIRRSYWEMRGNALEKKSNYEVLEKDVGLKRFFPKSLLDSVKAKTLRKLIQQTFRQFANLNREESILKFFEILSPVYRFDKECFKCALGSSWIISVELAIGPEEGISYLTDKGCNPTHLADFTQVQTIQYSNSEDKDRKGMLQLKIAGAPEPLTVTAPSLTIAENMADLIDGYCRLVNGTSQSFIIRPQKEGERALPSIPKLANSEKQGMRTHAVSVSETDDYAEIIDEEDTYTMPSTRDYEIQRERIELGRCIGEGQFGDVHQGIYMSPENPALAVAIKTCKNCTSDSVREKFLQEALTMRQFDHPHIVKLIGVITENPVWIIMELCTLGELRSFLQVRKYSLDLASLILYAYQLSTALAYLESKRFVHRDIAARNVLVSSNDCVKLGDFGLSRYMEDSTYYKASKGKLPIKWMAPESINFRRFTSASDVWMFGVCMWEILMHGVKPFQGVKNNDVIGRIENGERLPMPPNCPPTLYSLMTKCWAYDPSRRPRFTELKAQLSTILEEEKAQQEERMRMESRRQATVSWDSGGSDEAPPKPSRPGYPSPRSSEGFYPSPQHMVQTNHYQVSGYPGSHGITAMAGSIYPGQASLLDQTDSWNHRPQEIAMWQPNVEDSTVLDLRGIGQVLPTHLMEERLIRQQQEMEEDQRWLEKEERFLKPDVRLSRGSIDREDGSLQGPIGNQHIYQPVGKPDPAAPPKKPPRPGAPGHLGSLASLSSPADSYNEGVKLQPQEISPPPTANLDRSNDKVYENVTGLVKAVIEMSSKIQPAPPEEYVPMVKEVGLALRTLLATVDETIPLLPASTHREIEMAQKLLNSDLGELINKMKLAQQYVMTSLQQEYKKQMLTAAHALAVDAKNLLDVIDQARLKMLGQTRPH
# T3 sequence (P00533 25-1210): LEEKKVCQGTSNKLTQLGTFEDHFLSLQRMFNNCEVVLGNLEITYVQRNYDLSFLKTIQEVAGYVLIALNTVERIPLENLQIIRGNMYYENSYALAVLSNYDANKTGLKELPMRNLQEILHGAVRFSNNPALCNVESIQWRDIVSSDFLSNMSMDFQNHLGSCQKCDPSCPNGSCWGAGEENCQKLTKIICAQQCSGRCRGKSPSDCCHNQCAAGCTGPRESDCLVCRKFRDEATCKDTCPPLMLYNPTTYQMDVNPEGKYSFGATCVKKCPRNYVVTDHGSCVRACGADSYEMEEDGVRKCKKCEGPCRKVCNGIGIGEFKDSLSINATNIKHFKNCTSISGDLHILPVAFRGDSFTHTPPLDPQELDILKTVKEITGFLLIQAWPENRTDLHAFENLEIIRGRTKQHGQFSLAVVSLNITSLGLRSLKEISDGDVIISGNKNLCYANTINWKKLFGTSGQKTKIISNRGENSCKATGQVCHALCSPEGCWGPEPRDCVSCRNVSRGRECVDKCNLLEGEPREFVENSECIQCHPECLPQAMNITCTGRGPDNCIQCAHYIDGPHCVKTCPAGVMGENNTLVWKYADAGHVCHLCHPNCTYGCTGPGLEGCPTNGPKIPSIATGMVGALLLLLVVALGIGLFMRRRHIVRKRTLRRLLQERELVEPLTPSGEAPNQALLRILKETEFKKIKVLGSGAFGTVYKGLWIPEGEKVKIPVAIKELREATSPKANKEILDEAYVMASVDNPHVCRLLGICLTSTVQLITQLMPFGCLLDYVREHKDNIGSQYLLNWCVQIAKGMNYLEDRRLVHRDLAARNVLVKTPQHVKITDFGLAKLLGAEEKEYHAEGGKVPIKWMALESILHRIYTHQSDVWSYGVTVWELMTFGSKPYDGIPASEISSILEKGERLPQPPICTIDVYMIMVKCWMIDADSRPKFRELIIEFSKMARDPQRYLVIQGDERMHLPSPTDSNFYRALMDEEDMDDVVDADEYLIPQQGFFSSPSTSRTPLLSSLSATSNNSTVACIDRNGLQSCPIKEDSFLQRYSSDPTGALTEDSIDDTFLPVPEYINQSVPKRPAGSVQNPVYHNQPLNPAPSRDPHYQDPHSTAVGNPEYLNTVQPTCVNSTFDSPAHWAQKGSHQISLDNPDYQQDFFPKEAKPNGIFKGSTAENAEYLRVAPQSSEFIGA
smiles,measurement,setting,value
"N[C@H]1CC[C@H](Nc2nc(-n3cnc4cc(OCc5ccccc5)ccc43)c3nc[nH]c3n2)CC1 [Example 20, Trans-N-[6-[5-(phenylmethoxy)-1H-benzimidazol-1-yl]-9H-purin-2-yl]-1,4-cyclohexanediamine]",inhibition at 20 µM,SRC kinase,99%
same,IC50,CaCiv1,1.7 µM
same,inhibition at 20 µM,ZAP kinase,95%
same,MIC,Candida albicans,32 µg/mL
same,MIC,Candida glabrata,16 µg/mL
same,MIC Aspergillus fumigatus,Aspergillus fumigatus,32 µg/mL
same,IC50,FAK,1.6 µM
same,inhibition at 20 µM,EGF tyr Kinase,100%
